Data reported in ChEMBL document CHEMBL3621092, “Lipid-conjugated Smac analogues” (Bioorg Med Chem Lett, 2015).

System: MDA-MB-231
Assay: Induction of apoptosis in human MDA-MB-231 cells assessed as increase in caspase-3/7 activity incubated for 24 hrs by luminescence based assay
Type: functional, cell-based
Settings: not given

Row | Compound | Activity
1 | CCCCCCCCCCCCCCCC(=O)N(CC(=O)NCCCC[C@H](NC(=O)[C@H](C)NC)C(=O)N1CCC[C@H]1C(=O)NC(c1ccccc1)c1ccccc1)CC(=O)NCCCC[C@H](NC(=O)[C@H](C)NC)C(=O)N1CCC[C@H]1C(=O)NC(c1ccccc1)c1ccccc1 | Dose-dependent effect

System: not listed separately
Assay: Stability in mouse plasma incubated at 37 degC by LC/MS method
Type: ADME, cell-free
Settings: read-out: Stability

Row | Compound | half-life [h]
2 | CCCCCCCCCCCCCCCC(=O)N(CC(=O)NCCCC[C@H](NC(=O)[C@H](C)NC)C(=O)N1CCC[C@H]1C(=O)NC(c1ccccc1)c1ccccc1)CC(=O)NCCCC[C@H](NC(=O)[C@H](C)NC)C(=O)N1CCC[C@H]1C(=O)NC(c1ccccc1)c1ccccc1 | < 31

System: MDA-MB-231
Assay: Growth inhibition of human MDA-MB-231 cells assessed as reduction in cell viability incubated for 48 hrs by PrestoBlue dye based florescence assay
Type: functional
Settings: MDA-MB-231, 48 h

Row | Compound | EC50 [µM]
3 | CCCCCCCCCCCCCCCC(=O)OCCN(CC(=O)NCCCC[C@H](NC(=O)[C@H](C)NC)C(=O)N1CCC[C@H]1C(=O)NC(c1ccccc1)c1ccccc1)CC(=O)NCCCC[C@H](NC(=O)[C@H](C)NC)C(=O)N1CCC[C@H]1C(=O)NC(c1ccccc1)c1ccccc1 | 4.3
4 | CCCCCCCCCCCCCCCC(=O)N(CC(=O)NCCCC[C@H](NC(=O)[C@H](C)NC)C(=O)N1CCC[C@H]1C(=O)NC(c1ccccc1)c1ccccc1)CC(=O)NCCCC[C@H](NC(=O)[C@H](C)NC)C(=O)N1CCC[C@H]1C(=O)NC(c1ccccc1)c1ccccc1 | 4.2
5 | CN[C@@H](C)C(=O)N[C@@H](CSCc1ccc(Oc2ccc(CSC[C@H](NC(=O)[C@H](C)NC)C(=O)N3CCC[C@H]3C(=O)NC(c3ccccc3)c3ccccc3)cc2)cc1)C(=O)N1CCC[C@H]1C(=O)NC(c1ccccc1)c1ccccc1 | 18.4
6 | CN[C@@H](C)C(=O)N[C@@H](CS)C(=O)N1CCC[C@H]1C(=O)NC(c1ccccc1)c1ccccc1 | > 100
7 | CN[C@@H](C)C(=O)N[C@@H](CCCCNC(=O)OCC1c2ccccc2-c2ccccc21)C(=O)N1CCC[C@H]1C(=O)NC(c1ccccc1)c1ccccc1 | 19
8 | CN[C@@H](C)C(=O)N[C@@H](CO)C(=O)N1CCC[C@H]1C(=O)NC(c1ccccc1)c1ccccc1 | > 100
9 | CN[C@@H](C)C(=O)N[C@@H](CCCCNC(=O)O[C@H]1CC[C@@]2(C)C(=CCC3C2CC[C@@]2(C)C3CC[C@@H]2[C@H](C)CCCC(C)C)C1)C(=O)N1CCC[C@H]1C(=O)NC(c1ccccc1)c1ccccc1 (some centres not stated) | 9.7
10 | CN[C@@H](C)C(=O)N[C@@H](CCCCN)C(=O)N1CCC[C@H]1C(=O)NC(c1ccccc1)c1ccccc1 | > 100
11 | CN[C@@H](C)C(=O)N[C@@H](CCCCNC(=O)CNCC(=O)NCCCC[C@H](NC(=O)[C@H](C)NC)C(=O)N1CCC[C@H]1C(=O)NC(c1ccccc1)c1ccccc1)C(=O)N1CCC[C@H]1C(=O)NC(c1ccccc1)c1ccccc1 | > 100
12 | CN[C@@H](C)C(=O)N[C@@H](CSCC(=O)NCCNC(=O)CSC[C@H](NC(=O)[C@H](C)NC)C(=O)N1CCC[C@H]1C(=O)NC(c1ccccc1)c1ccccc1)C(=O)N1CCC[C@H]1C(=O)NC(c1ccccc1)c1ccccc1 | > 100
13 | CN[C@@H](C)C(=O)N[C@@H](CCCCNC(=O)CCCCCCC(=O)NCCCC[C@H](NC(=O)[C@H](C)NC)C(=O)N1CCC[C@H]1C(=O)NC(c1ccccc1)c1ccccc1)C(=O)N1CCC[C@H]1C(=O)NC(c1ccccc1)c1ccccc1 | > 100
14 | CN[C@@H](C)C(=O)N[C@@H](CCCCNC(=O)NCCCC[C@H](NC(=O)[C@H](C)NC)C(=O)N1CCC[C@H]1C(=O)NC(c1ccccc1)c1ccccc1)C(=O)N1CCC[C@H]1C(=O)NC(c1ccccc1)c1ccccc1 | > 100
15 | CN[C@@H](C)C(=O)N[C@@H](CSCCS(=O)(=O)CCSC[C@H](NC(=O)[C@H](C)NC)C(=O)N1CCC[C@H]1C(=O)NC(c1ccccc1)c1ccccc1)C(=O)N1CCC[C@H]1C(=O)NC(c1ccccc1)c1ccccc1 | 52.4
16 | CN[C@@H](C)C(=O)N[C@@H](CSCc1cccc(Cc2cccc(CSC[C@H](NC(=O)[C@H](C)NC)C(=O)N3CCC[C@H]3C(=O)NC(c3ccccc3)c3ccccc3)c2)c1)C(=O)N1CCC[C@H]1C(=O)NC(c1ccccc1)c1ccccc1 | > 100
17 | CCCCCCCCCCCCCCCCCCCCCCCC(=O)NCCCC[C@H](NC(=O)[C@H](C)NC)C(=O)N1CCC[C@H]1C(=O)NC(c1ccccc1)c1ccccc1 | > 100
18 | CN[C@@H](C)C(=O)N[C@@H](CSSC(C)(C)C)C(=O)N1CCC[C@H]1C(=O)NC(c1ccccc1)c1ccccc1 | 49.9
19 | CN[C@@H](C)C(=O)N[C@@H](CSCc1cccc(CSC[C@H](NC(=O)[C@H](C)NC)C(=O)N2CCC[C@H]2C(=O)NC(c2ccccc2)c2ccccc2)c1)C(=O)N1CCC[C@H]1C(=O)NC(c1ccccc1)c1ccccc1 | 7.4
20 | CCCCCCCCCCCCCCCCSCc1cc(CSC[C@H](NC(=O)[C@H](C)NC)C(=O)N2CCC[C@H]2C(=O)NC(c2ccccc2)c2ccccc2)cc(CSC[C@H](NC(=O)[C@H](C)NC)C(=O)N2CCC[C@H]2C(=O)NC(c2ccccc2)c2ccccc2)c1 | 11.3
21 | CN[C@@H](C)C(=O)N[C@@H](CCCCNC(=N)N)C(=O)N1CCC[C@H]1C(=O)NC(c1ccccc1)c1ccccc1 | > 100
22 | CN[C@@H](C)C(=O)N[C@@H](CSCc1ccc(-c2ccc(CSC[C@H](NC(=O)[C@H](C)NC)C(=O)N3CCC[C@H]3C(=O)NC(c3ccccc3)c3ccccc3)cc2)cc1)C(=O)N1CCC[C@H]1C(=O)NC(c1ccccc1)c1ccccc1 | 4
23 | CN[C@@H](C)C(=O)N[C@@H](CSCc1ccc(CSC[C@H](NC(=O)[C@H](C)NC)C(=O)N2CCC[C@H]2C(=O)NC(c2ccccc2)c2ccccc2)cc1)C(=O)N1CCC[C@H]1C(=O)NC(c1ccccc1)c1ccccc1 | 9.6
24 | CN[C@@H](C)C(=O)N[C@@H](CCCCNC(=O)Nc1ccc(NC(=O)NCCCC[C@H](NC(=O)[C@H](C)NC)C(=O)N2CCC[C@H]2C(=O)NC(c2ccccc2)c2ccccc2)cc1)C(=O)N1CCC[C@H]1C(=O)NC(c1ccccc1)c1ccccc1 | 34.8
25 | CN[C@@H](C)C(=O)N[C@@H](CCCCNC(=O)Nc1ccc(Oc2ccc(NC(=O)NCCCC[C@H](NC(=O)[C@H](C)NC)C(=O)N3CCC[C@H]3C(=O)NC(c3ccccc3)c3ccccc3)cc2)cc1)C(=O)N1CCC[C@H]1C(=O)NC(c1ccccc1)c1ccccc1 | 14.4

System: MDA-MB-231
Assay: Induction of apoptosis in human MDA-MB-231 cells assessed as increase in caspase-3/7 activity incubated for 24 hrs by luminescence based assay relative to control
Type: functional
Settings: not given

Row | Compound | fold change (FC)
26 | CN[C@@H](C)C(=O)N[C@@H](CCCCNc1cc(NCCCC[C@H](NC(=O)[C@H](C)NC)C(=O)N2CCC[C@H]2C(=O)NC(c2ccccc2)c2ccccc2)c([N+](=O)[O-])cc1[N+](=O)[O-])C(=O)N1CCC[C@H]1C(=O)NC(c1ccccc1)c1ccccc1 | 2.7
27 | CN[C@@H](C)C(=O)N[C@@H](CSCc1ccc(-c2ccc(CSC[C@H](NC(=O)[C@H](C)NC)C(=O)N3CCC[C@H]3C(=O)NC(c3ccccc3)c3ccccc3)cc2)cc1)C(=O)N1CCC[C@H]1C(=O)NC(c1ccccc1)c1ccccc1 | 2.7
